Assay results from paper PMC9181887, “In Vitro Antithrombotic, Hematological Toxicity, and Inhibitor Studies of Protocatechuic, Isovanillic, and p-Hydroxybenzoic Acids from Maclura tricuspidata (Carr.) Bur” (Molecules, 2022).
Where two headings read alike, the source gives them in different places.

Tests used:
[1] = tested on: fibrin clot formation (fibrinogen, thrombin, CaCl2); assay: Fibrin clot assay; format: biochemical, Human; conditions: 100 μg
Protocol: The fibrin clot assay, as previously described, was performed to evaluate the improvement in blood circulation by the attenuation of fibrin formation. First, 1.5% fibrinogen, 0.5 U/mL of thrombin, and 5 mM CaCl2 in 20 mM Tris-HCl in a volume of 100 μL were added to different concentrations of compounds or 10–20 IU u-PA as PC 1–2. These prepared fibrin clot mixtures were incubated at 37 °C for 30 min. Each tube of the fibrin clot mixture was photographed, and the density of the clots was measured using the ImageJ 1.46 b image analysis software (National Institutes of Health, Bethesda, MD, USA). Inhibitory activity was calculated as follows:Inhibitory activity (%) = [1 − (density control without sample−density sample)/density control without sample] × 100

human FXIIIa = molecular target: T1, human FXIIIa (Homo sapiens, UniProt P00488); assay: FXIIIa activity and kinetic/inhibitor assay; format: biochemical; conditions: for FXIIIa activity: 1–20 μg, vs control, p < 0.05; for IC50 / Ki / Kik/Kiv / Kcat / Vmax: FXIIIa; for inhibition type against FXIIIa: from Kik/Kiv ratio and Lineweaver–Burk plots
T1 construct: purchased Sigma-Aldrich
T1 sequence (P00488 39-732 limits assumed): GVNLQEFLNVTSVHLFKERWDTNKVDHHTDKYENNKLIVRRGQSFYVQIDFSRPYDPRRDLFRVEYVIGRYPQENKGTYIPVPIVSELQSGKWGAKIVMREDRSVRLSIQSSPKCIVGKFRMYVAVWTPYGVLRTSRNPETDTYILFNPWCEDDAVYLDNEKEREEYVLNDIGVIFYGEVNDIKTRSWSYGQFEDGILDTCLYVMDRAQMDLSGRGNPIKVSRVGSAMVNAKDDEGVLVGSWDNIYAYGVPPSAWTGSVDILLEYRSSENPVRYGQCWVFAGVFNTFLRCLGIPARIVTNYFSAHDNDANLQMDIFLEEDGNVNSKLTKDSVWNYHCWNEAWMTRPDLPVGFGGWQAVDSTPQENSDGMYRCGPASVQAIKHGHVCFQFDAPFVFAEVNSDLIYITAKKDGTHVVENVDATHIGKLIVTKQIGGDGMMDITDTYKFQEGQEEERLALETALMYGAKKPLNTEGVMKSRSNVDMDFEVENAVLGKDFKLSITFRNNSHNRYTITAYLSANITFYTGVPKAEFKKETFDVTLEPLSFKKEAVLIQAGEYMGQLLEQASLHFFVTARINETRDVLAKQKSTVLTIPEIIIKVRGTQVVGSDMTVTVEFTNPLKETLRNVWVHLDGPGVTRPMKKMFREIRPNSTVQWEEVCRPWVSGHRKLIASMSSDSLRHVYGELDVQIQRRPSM
Protocol: (§1) To determine the thrombin activity, various concentrations of compounds were treated with 1 U human thrombin in 100 μL of 20 mM Tris-HCl, as previously described. The reaction solutions were incubated for 15 min at 37 °C. After the incubation, 1 mM chromogenic substrate for thrombin (S-2238, HD-Phe-Pip-Arg-p-nitroanilide) was added and incubated for 1 h at 37 °C. Absorbance was measured at 405 nm to determine the enzymatic activity. To determine FXa activity, various concentrations of the compounds were mixed with 1 U human FXa in 20 mM Tris-HCl (pH 7.4) in volume of 100 μL, followed by incubation for 15 min at 37 °C. After adding 1 mM N-benzoyl-Ile-Glu-Gly-Arg-p-nitroanilide, a highly specific chromogenic peptide substrate for FXa, the reaction solutions were incubated for 1 h at 37 °C. The residual activity of FXa was measured at 405 nm and is presented as a percentage of inhibition. To investigate FXIIIa activity, various concentrations of the compounds were mixed with 1 U human FXIIIa in 20 mM Tris-HCl (pH 7.4) in a volume of 100 μL, followed by, incubation for 15 min at 37 °C as previously described. The residual activity of FXIIIa was measured using casein and fibrinogen-HRP, according to the manufacturer’s instructions, and was presented as a percentage of inhibition. The negative control was generated by treatment with only thrombin, FXa, or FXIIIa without treatment with any compound.
(§2) Kinetic assays were performed using PA, IVA, and 4-HA for procoagulant proteases (thrombin and FXa) and fibrinoligase (FXIIIa). The kinetic constants were calculated using Lineweaver–Burk plots based on the initial reaction rates with different concentrations (0.1, 0.5, 1, and 2 mM) of each substrate for thrombin, FXa, and FXIIIa treated with or without the compounds (0.065, 0.13, 0.33, 0.65, and 1.30 mM [1–20 μg]) in a total volume of 100 μL. The Michaelis–Menten constant (Km) and maximal velocity (Vmax) were calculated from the x and y intercepts, respectively. […] The median inhibitory concentration (IC50) was defined as the concentration required to reach a 50% reduction in the activity of the three target factors. The Kik and Kiv inhibition constants were calculated using a previously described method. The inhibition type of the compounds against the three target factors was evaluated according to a previously described inhibition type definition.

human FXa = molecular target: T2, human FXa (Homo sapiens, UniProt P00742); assay: FXa activity and kinetic/inhibitor assay; format: biochemical; conditions: for FXa activity: 1–20 μg, vs control, p < 0.05; for IC50 / Kik/Kiv / Kcat / Vmax / Ki: FXa; for inhibition type against FXa: from Kik/Kiv ratio and Lineweaver–Burk plots
T2 construct: purchased Sigma-Aldrich
T2 sequence (P00742 235-488 limits assumed): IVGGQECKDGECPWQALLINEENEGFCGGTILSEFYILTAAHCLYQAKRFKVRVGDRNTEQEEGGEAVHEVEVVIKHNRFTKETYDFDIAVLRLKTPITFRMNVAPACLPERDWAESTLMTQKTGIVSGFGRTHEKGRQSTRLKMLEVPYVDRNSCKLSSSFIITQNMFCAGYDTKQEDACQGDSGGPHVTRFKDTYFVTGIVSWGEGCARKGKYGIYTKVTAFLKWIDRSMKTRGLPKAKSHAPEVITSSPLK
T2 sequence (P00742 41-179 limits assumed): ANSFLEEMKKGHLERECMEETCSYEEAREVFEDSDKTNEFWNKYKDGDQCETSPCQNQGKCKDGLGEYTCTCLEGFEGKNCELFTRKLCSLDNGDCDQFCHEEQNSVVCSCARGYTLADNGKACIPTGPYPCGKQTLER
Protocol: as §1, §2

[2] = read-out: Kiv (inhibition constant using Vmax)

SMILES: O=C(O)c1ccc(O)cc1 [4-HA, 4-hydroxybenzoic acid]
- inhibition of fibrin clot formation [1]: 67.1 ± 1.3%
- FXIIIa activity (human FXIIIa): significant reductions
- IC50 (human FXIIIa): 1960 µM
- Ki (human FXIIIa): 1960 µM
- Kik/Kiv (human FXIIIa): 6005.6
- Kcat (human FXIIIa; compound 0.065 mM (1 μg)): 88.6 ± 0.10 s⁻¹
- Vmax (human FXIIIa; compound 0.065 mM (1 μg)): 0.142 ± 0.04 mU/min
- Kcat (human FXIIIa; compound 0.13 mM (2 μg)): 87.7 ± 0.09 s⁻¹
- Vmax (human FXIIIa; compound 0.13 mM (2 μg)): 0.141 ± 0.04 mU/min
- Kcat (human FXIIIa; compound 0.325 mM (5 μg)): 77.2 ± 0.05 s⁻¹
- Vmax (human FXIIIa; compound 0.325 mM (5 μg)): 0.124 ± 0.03 mU/min
- Kcat (human FXIIIa; compound 0.65 mM (10 μg)): 70.5 ± 0.07 s⁻¹
- Vmax (human FXIIIa; compound 0.65 mM (10 μg)): 0.113 ± 0.03 mU/min
- Kcat (human FXIIIa; compound 1.3 mM (20 μg)): 62.0 ± 0.06 s⁻¹
- Vmax (human FXIIIa; compound 1.3 mM (20 μg)): 0.099 ± 0.04 mU/min
- inhibition type against FXIIIa (human FXIIIa): non-competitive inhibition type
- FXa activity (human FXa): significant reductions
- IC50 (human FXa): 4010 µM
- Kik/Kiv (human FXa): 5.3
- Kcat (human FXa; compound 0.065 mM (1 μg)): 22.14 ± 0.22 s⁻¹
- Vmax (human FXa; compound 0.065 mM (1 μg)): 0.60 ± 0.03 mU/min
- Kcat (human FXa; compound 0.13 mM (2 μg)): 21.77 ± 0.26 s⁻¹
- Vmax (human FXa; compound 0.13 mM (2 μg)): 0.59 ± 0.02 mU/min
- Kcat (human FXa; compound 0.325 mM (5 μg)): 21.79 ± 0.44 s⁻¹
- Vmax (human FXa; compound 0.325 mM (5 μg)): 0.59 ± 0.04 mU/min
- Kcat (human FXa; compound 0.65 mM (10 μg)): 21.18 ± 0.42 s⁻¹
- Vmax (human FXa; compound 0.65 mM (10 μg)): 0.57 ± 0.02 mU/min
- Kcat (human FXa; compound 1.3 mM (20 μg)): 20.22 ± 0.37 s⁻¹
- Vmax (human FXa; compound 1.3 mM (20 μg)): 0.55 ± 0.02 mU/min
- Ki (human FXa; read-out: Ki): 3990 µM
- Ki (human FXa; [2]): 109 µM
- inhibition type against FXa (human FXa): non-competitive inhibition

SMILES: COc1ccc(C(=O)O)cc1O [IVA, isovanillic acid]
- inhibition of fibrin clot formation [1]: 55.6 ± 1.7%
- FXIIIa activity (human FXIIIa): significant reductions
- IC50 (human FXIIIa): 1920 µM
- Ki (human FXIIIa): 1920 µM
- Kik/Kiv (human FXIIIa): 10.4
- Kcat (human FXIIIa; compound 0.065 mM (1 μg)): 89.3 ± 0.09 s⁻¹
- Vmax (human FXIIIa; compound 0.065 mM (1 μg)): 0.143 ± 0.02 mU/min
- Kcat (human FXIIIa; compound 0.13 mM (2 μg)): 84.5 ± 0.07 s⁻¹
- Vmax (human FXIIIa; compound 0.13 mM (2 μg)): 0.135 ± 0.03 mU/min
- Kcat (human FXIIIa; compound 0.325 mM (5 μg)): 80.5 ± 0.05 s⁻¹
- Vmax (human FXIIIa; compound 0.325 mM (5 μg)): 0.129 ± 0.04 mU/min
- Kcat (human FXIIIa; compound 0.65 mM (10 μg)): 80.5 ± 0.09 s⁻¹
- Vmax (human FXIIIa; compound 0.65 mM (10 μg)): 0.129 ± 0.03 mU/min
- Kcat (human FXIIIa; compound 1.3 mM (20 μg)): 68.7 ± 0.08 s⁻¹
- Vmax (human FXIIIa; compound 1.3 mM (20 μg)): 0.110 ± 0.04 mU/min
- inhibition type against FXIIIa (human FXIIIa): non-competitive inhibition type
- FXa activity (human FXa): significant reductions
- IC50 (human FXa): 4210 µM
- Kik/Kiv (human FXa): 5.6
- Kcat (human FXa; compound 0.065 mM (1 μg)): 24.20 ± 0.27 s⁻¹
- Vmax (human FXa; compound 0.065 mM (1 μg)): 0.66 ± 0.04 mU/min
- Kcat (human FXa; compound 0.13 mM (2 μg)): 22.34 ± 0.41 s⁻¹
- Vmax (human FXa; compound 0.13 mM (2 μg)): 0.61 ± 0.02 mU/min
- Kcat (human FXa; compound 0.325 mM (5 μg)): 22.23 ± 0.35 s⁻¹
- Vmax (human FXa; compound 0.325 mM (5 μg)): 0.60 ± 0.03 mU/min
- Kcat (human FXa; compound 0.65 mM (10 μg)): 20.67 ± 0.32 s⁻¹
- Vmax (human FXa; compound 0.65 mM (10 μg)): 0.56 ± 0.03 mU/min
- Kcat (human FXa; compound 1.3 mM (20 μg)): 18.56 ± 0.30 s⁻¹
- Vmax (human FXa; compound 1.3 mM (20 μg)): 0.50 ± 0.04 mU/min
- Ki (human FXa; read-out: Ki): 4190 µM
- Ki (human FXa; [2]): 75 µM
- inhibition type against FXa (human FXa): non-competitive inhibition

SMILES: O=C(O)c1ccc(O)c(O)c1 [PA, protocatechuic acid]
- inhibition of fibrin clot formation [1]: 66.9 ± 3.3%
- FXIIIa activity (human FXIIIa): significant reductions
- IC50 (human FXIIIa): 1640 µM
- Ki (human FXIIIa): 1630 µM
- Kik/Kiv (human FXIIIa): 6.1
- Kcat (human FXIIIa; compound 0.065 mM (1 μg)): 91.1 ± 0.03 s⁻¹
- Vmax (human FXIIIa; compound 0.065 mM (1 μg)): 0.146 ± 0.03 mU/min
- Kcat (human FXIIIa; compound 0.13 mM (2 μg)): 84.4 ± 0.06 s⁻¹
- Vmax (human FXIIIa; compound 0.13 mM (2 μg)): 0.135 ± 0.02 mU/min
- Kcat (human FXIIIa; compound 0.325 mM (5 μg)): 80.1 ± 0.05 s⁻¹
- Vmax (human FXIIIa; compound 0.325 mM (5 μg)): 0.128 ± 0.03 mU/min
- Kcat (human FXIIIa; compound 0.65 mM (10 μg)): 71.8 ± 0.07 s⁻¹
- Vmax (human FXIIIa; compound 0.65 mM (10 μg)): 0.115 ± 0.04 mU/min
- Kcat (human FXIIIa; compound 1.3 mM (20 μg)): 62.5 ± 0.04 s⁻¹
- Vmax (human FXIIIa; compound 1.3 mM (20 μg)): 0.100 ± 0.02 mU/min
- inhibition type against FXIIIa (human FXIIIa): non-competitive inhibition type
- FXa activity (human FXa): significant reductions
- IC50 (human FXa): 3090 µM
- Kik/Kiv (human FXa): 1.6
- Kcat (human FXa; compound 0.065 mM (1 μg)): 21.36 ± 0.54 s⁻¹
- Vmax (human FXa; compound 0.065 mM (1 μg)): 0.58 ± 0.03 mU/min
- Kcat (human FXa; compound 0.13 mM (2 μg)): 17.35 ± 0.48 s⁻¹
- Vmax (human FXa; compound 0.13 mM (2 μg)): 0.47 ± 0.02 mU/min
- Kcat (human FXa; compound 0.325 mM (5 μg)): 14.67 ± 0.25 s⁻¹
- Vmax (human FXa; compound 0.325 mM (5 μg)): 0.40 ± 0.02 mU/min
- Kcat (human FXa; compound 0.65 mM (10 μg)): 12.09 ± 0.29 s⁻¹
- Vmax (human FXa; compound 0.65 mM (10 μg)): 0.33 ± 0.01 mU/min
- Kcat (human FXa; compound 1.3 mM (20 μg)): 11.62 ± 0.31 s⁻¹
- Vmax (human FXa; compound 1.3 mM (20 μg)): 0.32 ± 0.01 mU/min
- Ki (human FXa; read-out: Ki): 3070 µM
- Ki (human FXa; [2]): 23 µM
- inhibition type against FXa (human FXa): uncompetitive inhibition type
